Measured values reported in patent US9708286B2, “Ingenol-3-acylates III and ingenol-3-carbamates” (LEO Laboratories Limited, priority 2010, dated 2017).
Like-named read-outs stand apart in the source and are kept apart here.

Experiments:
Assay type in all cases: cell-based
[1] = system: Primary human epidermal keratinocytes, HeKa; assay: HeKa cytokine release (IL-8); settings: read-out: HeKa cytokine release (IL-8) Rel EC50 range
Experimental: Primary human epidermal keratinocytes, HeKa, were seeded (10.000 cells/well) in 96-well plates the day before the assay. Test compounds were diluted in DMSO (dimethyl sulfoxide) and further diluted in assay medium and pipetted into wells of 96 well-plates containing HeKa cells. The plates were incubated for 6 h at 37° C. in humidified air with 5% CO2. Plates were centrifuged briefly to spin down cells at 4° C., the supernatant was removed and analysed by Meso Scale Discovery (MSD) 4-spot cytokine assay (Pro-inflammatory II Ultra Sensitive kit, MSD, MD, USA). The MSD assay employs a sandwich immunoassay format where capture antibodies are coated in a patterned array on the bottom of the wells of a 4-Spot-Multi-MSD plate. Standard samples were incubated in the MULTI-SPOT plates as well, and the cytokine (IL-8) binds to its corresponding capture antibody spot. The cytokine level was quantitated on a SECTOR™ Imager using a cytokine-specific Detection Antibody labelled with MSD SULFO-TAG™ reagent.
(§1) Test compound titration curves were fitted to a four-parameter sigmoidal curve after normalizing the effect of the test compound to the effect of the positive control (1.5×10^−7 M PEP0005). Rel EC50 denotes the concentration of test compound producing an effect that is midway between the fitted top and bottom.

[2] = system: PMN's (polymorphonuclear leukocytes); assay: Neutrophil oxidative burst; settings: normalized to 5×10^−7 M PEP0005
Experimental: PMN's (polymorphonuclear leukocytes) were isolated and purified from fresh buffy coats by sequential sedimentation, density centrifugation and lysis of contaminating erythrocytes. Buffy coats were incubated with 2% methocel for 30-45 min to differentially sediment red blood cells. The leukocyte-rich supernatant was transferred to lymphoprep tubes to remove mononuclear cells by density centrifugation (400×g, 30 min). The pellet was resuspended and any remaining erythrocytes lysed using 0.2% NaCl for 30 sec before restoring isotonicity by the addition of 1.2% NaCl. This step was repeated until the cell pellet appears relatively free of red blood cells. Cells were resuspended in DPBS (Dulbecco's Phosphate Buffered Saline) (w.o. Ca^2+, Mg^2+) and the concentration adjusted to 1.4×10^6 cells/ml in HBSS (Hanks Balanced Salt solution) (w Ca^2+, Mg^2±) containing 0.1% BSA (Bovine Serum Albumin) and 5 mM glucose just prior to assay initiation. Titrated reference and test compounds were pre-mixed with HE (Hydroethidine) (10 μM final assay concentration) before addition to 96-well plates containing 2.5×10^5 cells. Following 40 min incubation at RT, changes in the respiratory burst was estimated by measuring fluorescence at 579 nm (excitation: 485 nm) using an Envision plate reader.
as §1, with “(5×10^−7” for “(1.5×10^−7”, “bottom. Abs EC50 is the concentration of test compound that provokes a response corresponding to 50% of the maximal effect associated with the positive control (5×10^−7 M PEP0005).” for “bottom.”

HeLa cells = assay: Necrosis assay; settings: Homo sapiens, HeLa, 0.5 h, read-out: HeLa necrosis EC50 range
Experimental: HeLa cells (ATCC CCL-002) were grown in minimal essential medium (Invitrogen catalog no. 42360) containing 10% fetal bovine serum, 100 IU/ml penicillin and 100 μg/ml streptomycin. 4,000-6,000 cells were seeded into 96-well black ViewPlates-plates, clear bottom, (Perkin Elmer) in 100 μl medium and incubated overnight. Compounds were dissolved and pre-diluted in DMSO in 96-well polypropylene plates (Greiner) in a concentration range of 15 μM to 600 μM. At the time of the experiment cell plates were placed on heating blocks at 37° C., medium was removed and 40 μl fresh, pre-warmed medium was added per well. Cells were incubated for 15 min before addition of compounds. In parallel, 3 μl of compounds were diluted with 197 μl growth medium on a Tecan freedom-EVO pipetting station using 250 μl/s pipetting speed, in order to ensure effective mixing of the highly concentrated compound solutions with the aqueous phase. These pre-dilution plates were then equilibrated on heating blocks at 37° C. for 10 min. 80 μl pre-diluted compound were transferred manually to the corresponding wells containing HeLa cells yielding compound concentrations of 10 μM to 400 μM. Control conditions were 1% DMSO in growth medium (100% viability) and 400 μM ingenol mebutate in growth medium (0% viability). Plates were incubated on the heating blocks at 37° C. for 30 min. At the end of the incubation 10 μl PrestoBlue reagent (Invitrogen) were added to each well, plates were sealed with black seal, followed by incubation at 37° C. for 10 min with gentle shaking (150 rpm). Subsequently, plates were placed at room temperature for 20-30 min. Plates were read immediately after on an Envision Fluorescence reader (Perkin Elmer) with excitation at 535 nm and emission at 630 nm. Test compound titration curves were fitted to a four-parameter sigmoidal curve after normalizing the effect of the test compound to the effect of the positive control (4 10^−4 M PEP0005/ingenol mebutate). AbsEC50 denotes the concentration of test compound producing 50% effect.

[3] = Leukocyte, 40 min, read-out: Neutrophil oxidative burst Rel EC50 range, PMN from buffy coats, 40 min at RT, hydroethidine fluorescence

SMILES | EC50 ([1]; Homo sapiens, HEKa, 6 h) [nM] | EC50 [2, 3] [nM] | EC50 (HeLa cells) [nM] | EC50 ([1]; HeKa cells, 6 h at 37° C., IL-8 by MSD assay, normalized to 1.5×10^−7 M PEP0005) [nM] | EC50 ([2]; read-out: Neutrophil oxidative burst Rel EC50 range, PMN from buffy coats, 40 min at RT, hydroethidine fluorescence) [nM]
CC1=C[C@]23C(=O)[C@@H](C=C(CO)[C@@H](O)[C@]2(O)[C@H]1OC(=O)N1CCCC1C(F)(F)F)[C@H]1[C@@H](C[C@H]3C)C1(C)C (single isomer, unassigned; isomer a) [Compound 740, Ingenol 3-(2-trifluoromethyl-pyrrolidine-1-carboxylate) (ISOMER A)] | 20 to 100 | < 20 | – | – | –
CC1=C[C@]23C(=O)[C@@H](C=C(CO)[C@@H](O)[C@]2(O)[C@H]1OC(=O)N1CCCC1C(F)(F)F)[C@H]1[C@@H](C[C@H]3C)C1(C)C (single isomer, unassigned; isomer b) [Compound 741, Ingenol 3-(2-trifluoromethyl-pyrrolidine-1-carboxylate) (ISOMER B)] | – | – | > 350000 | 20 to 100 | 20 to 100
CC1=C[C@]23C(=O)[C@@H](C=C(CO)[C@@H](O)[C@]2(O)[C@H]1OC(=O)c1c(-c2c(F)cccc2Cl)noc1C)[C@H]1[C@@H](C[C@H]3C)C1(C)C [Compound 501, Ingenol 3-(5-methyl-3-(2-chloro-6-fluoro-phenyl)-isoxazole-4-carboxylate)] | < 20 | 20 to 100 | < 150000 | – | –
CC1=C[C@]23C(=O)[C@@H](C=C(CO)[C@@H](O)[C@]2(O)[C@H]1OC(=O)c1c(-c2ccccc2)noc1C)[C@H]1[C@@H](C[C@H]3C)C1(C)C [Compound 502, Ingenol 3-(5-methyl-3-phenyl-isoxazole-4-carboxylate)] | < 20 | < 20 | < 150000 | – | –
CC1=C[C@]23C(=O)[C@@H](C=C(CO)[C@@H](O)[C@]2(O)[C@H]1OC(=O)c1cnnn1-c1ccccc1)[C@H]1[C@@H](C[C@H]3C)C1(C)C [Compound 504, Ingenol 3-(3-phenyltriazole-4-carboxylate)] | 20 to 100 | 20 to 100 | – | – | –
CC1=C[C@]23C(=O)[C@@H](C=C(CO)[C@@H](O)[C@]2(O)[C@H]1OC(=O)c1cn(C)c2ccccc12)[C@H]1[C@@H](C[C@H]3C)C1(C)C [Compound 509, Ingenol 3-(1-methylindole-3-carboxylate)] | < 20 | < 20 | – | – | –
CC1=C[C@]23C(=O)[C@@H](C=C(CO)[C@@H](O)[C@]2(O)[C@H]1OC(=O)c1c(C(C)(C)C)noc1C)[C@H]1[C@@H](C[C@H]3C)C1(C)C [Compound 549, Ingenol 3-(5-methyl-3-tert-butyl-isoxazole-4-carboxylate)] | < 20 | < 20 | – | – | –
CC1=C[C@]23C(=O)[C@@H](C=C(CO)[C@@H](O)[C@]2(O)[C@H]1OC(=O)c1c(C)nn(C(C)(C)C)c1C)[C@H]1[C@@H](C[C@H]3C)C1(C)C [Compound 551, Ingenol 3-(1-tert-butyl-3,5-dimethyl-pyrazole-4-carboxylate)] | < 20 | < 20 | – | – | –
CC1=C[C@]23C(=O)[C@@H](C=C(CO)[C@@H](O)[C@]2(O)[C@H]1OC(=O)c1c(C)cc(=O)oc1C)[C@H]1[C@@H](C[C@H]3C)C1(C)C [Compound 573, Ingenol 3-(2,4-dimethyl-6-oxo-pyran-3-carboxylate)] | 20 to 100 | 20 to 100 | – | – | –
CC1=C[C@]23C(=O)[C@@H](C=C(CO)[C@@H](O)[C@]2(O)[C@H]1OC(=O)N(C)C)[C@H]1[C@@H](C[C@H]3C)C1(C)C [Compound 702, Ingenol 3-(N,N-dimethyl-carbamate)] | > 100 | 20 to 100 | – | – | –
CC1=C[C@]23C(=O)[C@@H](C=C(CO)[C@@H](O)[C@]2(O)[C@H]1OC(=O)N1CCOCC1)[C@H]1[C@@H](C[C@H]3C)C1(C)C [Compound 703, Ingenol 3-(morpholine-4-carboxylate)] | > 100 | 20 to 100 | – | – | –
CC1=C[C@]23C(=O)[C@@H](C=C(CO)[C@@H](O)[C@]2(O)[C@H]1OC(=O)N1CCCC1)[C@H]1[C@@H](C[C@H]3C)C1(C)C [Compound 704, Ingenol 3-(pyrrolidine-1-carboxylate)] | > 100 | 20 to 100 | – | – | –
CC1=C[C@]23C(=O)[C@@H](C=C(CO)[C@@H](O)[C@]2(O)[C@H]1OC(=O)N1CCCCC1)[C@H]1[C@@H](C[C@H]3C)C1(C)C [Compound 707, Ingenol 3-(piperidine-1-carboxylate)] | 20 to 100 | < 20 | – | – | –
CC1=C[C@]23C(=O)[C@@H](C=C(CO)[C@@H](O)[C@]2(O)[C@H]1OC(=O)N(C)Cc1ccccc1)[C@H]1[C@@H](C[C@H]3C)C1(C)C [Compound 708, Ingenol 3-(N-benzyl-N-methyl-carbamate)] | < 20 | 20 to 100 | – | – | –
CC1=C[C@]23C(=O)[C@@H](C=C(CO)[C@@H](O)[C@]2(O)[C@H]1OC(=O)NC1CCCCC1)[C@H]1[C@@H](C[C@H]3C)C1(C)C [Compound 710, Ingenol 3-(N-cyclohexyl-carbamate)] | 20 to 100 | < 20 | – | – | –
CC1=C[C@]23C(=O)[C@@H](C=C(CO)[C@@H](O)[C@]2(O)[C@H]1OC(=O)Nc1ccccc1)[C@H]1[C@@H](C[C@H]3C)C1(C)C [Compound 711, Ingenol 3-(N-phenyl-carbamate)] | < 20 | 20 to 100 | – | – | –
CC1=C[C@]23C(=O)[C@@H](C=C(CO)[C@@H](O)[C@]2(O)[C@H]1OC(=O)NC1CCc2ccccc21)[C@H]1[C@@H](C[C@H]3C)C1(C)C (stereo partly shown) [Compound 712, Ingenol 3-(N-(indan-1-yl)-carbamate)] | 20 to 100 | 20 to 100 | – | – | –
CC1=C[C@]23C(=O)[C@@H](C=C(CO)[C@@H](O)[C@]2(O)[C@H]1OC(=O)N(C)c1ccccn1)[C@H]1[C@@H](C[C@H]3C)C1(C)C [Compound 724, Ingenol 3-(N-methyl-N-(2-pyridyl)-carbamate)] | 20 to 100 | – | > 350000 | – | –
CC1=C[C@]23C(=O)[C@@H](C=C(CO)[C@@H](O)[C@]2(O)[C@H]1OC(=O)N1CCCCCC1)[C@H]1[C@@H](C[C@H]3C)C1(C)C [Compound 728, Ingenol 3-(azepane-1-carboxylate)] | 20 to 100 | 20 to 100 | – | – | –
C#CCN(C)C(=O)O[C@H]1C(C)=C[C@]23C(=O)[C@@H](C=C(CO)[C@@H](O)[C@]12O)[C@H]1[C@@H](C[C@H]3C)C1(C)C [Compound 751, Ingenol 3-(N-methyl-N-prop-2-ynyl-carbamate)] | – | 20 to 100 | > 350000 | – | –
